The values that follow come from the METLIN SMRT retention time set (Domingo-Almenara et al. 2019).

Structures are written as SMILES.

A short description of this data set: gradient 5% acetonitrile 3 min, to 50% in 2 min, to 85% in 15 min, held 3 min, 100 µL/min. As to conditions: column: Zorbax Extend-C18 2.1 x 50 mm; eluents: water / acetonitrile, 0.1% formic acid. In short, it runs like this:
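Over 3 months, pure standards in mixtures of ~100 molecules were run by HPLC coupled to a quadrupole time-of-flight mass spectrometer in positive and negative ionization mode. The column was a Zorbax Extend-C18 (2.1 × 50 mm, 1.8 μm) at 100 μL/min, eluted with water and acetonitrile each holding 0.1% formic acid, with 40 μL dead and 900 μL dwell volumes. Retention time was determined from adduct peaks chosen by software and checked manually.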
`COC(=O)c1ccc(CSc2nccc3c(OC)cccc23)o1` gave an RP-LC retention time of 1100 s. As for `COc1ccc(NC(=O)C2CCN(S(C)(=O)=O)c3ccccc3O2)cc1Cl` (stereo not drawn), the RP-LC retention time was 921 s.

The molecule `Cn1c(=O)c2c(C(=O)NCC3CCN(Cc4cccc(Cl)c4)CC3)cc(=O)n(C)c2n(C)c1=O` showed an RP-LC retention time of 632 s. To `O=C(c1cnccn1)N1CC(c2nc(-c3cccs3)no2)C1` belongs 693 s; to `O=C(NCC1(c2cccs2)CCOCC1)C(=O)Nc1cccnc1`, 600 s; to `CCOC(=O)CNC(=O)Nc1ccc(-c2nc(-c3cc(C)ccc3C)co2)cc1`, 1040 s. To `COc1cc(=O)n2c(c1C(=O)Nc1ccc(Br)cc1C)CCCC2` belongs 757 s; to `COc1ccc(-c2nc3ccccn3c2Nc2ccc3c(c2)OCCO3)cc1`, 719 s; to `CC(C)(C)NC[C@H](O)COc1cccc2[nH]c(C#N)cc12`, 663 s. In the case of `O=C(Cn1c(C(F)(F)F)nc2cc3c(cc21)OCCO3)Nc1ccccc1` it was 867 s; in that of `CC(=O)Nc1ccc2c(c1)CN(C(=O)c1ccccc1C(F)(F)F)C(C(=O)N(C)C)C2` (stereo not drawn), 675 s. Consider `CCCn1ncc(N2CCC(C(=O)N3CCN(CC)CC3)CC2)cc1=O`, for which the RP-LC retention time stood at 567 s. To `CC(=O)Nc1cccc(C2=NN(C(C)=O)C(c3cccs3)C2)c1` (stereo not drawn) belongs 685 s; to `COCCOCc1nc(C2CCCN2C(=O)c2sccc2C)no1` (stereo not drawn), 716 s. To `CCCN1C(=O)COc2ccc(-c3noc(COc4ccccc4)n3)cc21` belongs 1100 s. In the case of `Cc1ccc(C)c(NC(=O)N(C)CCc2noc(COc3ccccc3F)n2)c1`, the RP-LC retention time stood at 919 s.

In turn, `CCn1ncc(NC(=O)c2ccccc2F)c(N2CCOCC2)c1=O` registered an RP-LC retention time of 842 s. To `CCOC(=O)c1c(S(=O)(=O)N2CCC(C(=O)NCc3ccc(C)o3)CC2)c(C)n(C)c1C` belongs 764 s; to `COC(=O)c1ccc(Cl)cc1NC(=O)N(C)CCc1c(C)nn(C)c1C`, 873 s; to `Cc1noc(-c2ccnc(-n3cnc(C(=O)N4CCOCC4)c3)c2)n1`, 638 s. The molecule `COc1ccc(OC)c(NC(=O)C(C)Oc2ccc(=O)n(-c3ccc(F)cc3)n2)c1` (stereo not drawn) gave an RP-LC retention time of 816 s.

For `O=C(Nc1ccccc1C(F)(F)F)C1CN(C(=O)c2ccc(F)c(F)c2)C1`, the RP-LC retention time was 748 s. In the case of `Cc1c(F)cccc1NC(=O)N1CCC(n2cnnc2C2CC2)C1` (stereo not drawn) it was 655 s; in that of `CC1=NS(=O)(=O)N(C)C=C1C(=O)OCc1nc(-c2ccc(F)cc2)no1`, 952 s; in that of `Cn1c(=O)c2c(nc3n(CCN4CCOCC4)c(C(C)(C)C)cn23)n(C)c1=O`, 552 s. In the case of `O=C(NCC1CCN(C(=O)Oc2ccccc2)CC1)Nc1ccc(C(F)(F)F)cc1` it was 947 s; in that of `COc1ccccc1N1CCN(c2cc(SCC(=O)Nc3ccc(F)cc3C)ncn2)CC1`, 959 s. To `Cc1ccc(-c2nc(Nc3ccc(Cl)cc3Cl)sc2CC(=O)O)cc1` belongs 1180 s; to `CN(CC1CCOC1)C(=O)c1cc(Cl)ccc1F` (stereo not drawn), 719 s.

Take `COCCn1ccc2nc(C)c(C(=O)NCc3ccc4c(c3)OCO4)cc2c1=O`: the RP-LC retention time was determined as 664 s. `O=C(Cn1nc(C2CC2)cc1C(=O)N1CCCC1)Nc1ccc(F)cc1Cl` had an RP-LC retention time of 813 s. In the case of `O=C1COc2ccccc2N1Cc1nc(-c2ccc(F)c(Cl)c2)no1`, the RP-LC retention time is 1090 s.

`Cc1c(Cl)cccc1S(=O)(=O)NCC(O)c1ccc(C(F)(F)F)cc1` (stereo not drawn) came in with an RP-LC retention time of 938 s.
